Measurements published in PubChem BioAssay AID1963852 (Molecular Pharmacology Branch, DTP, NCI, 2024).

Tested on: 282377-053-R-J1-PDC complex spheroid viability
Assay: Anticancer human tumor 282377-053-R-J1-PDC patient-derived colon adenocarcinoma cell line growth inhibition [POLQ]
Details: for IC50: curve of first compound; for viability, T/C: stronger effect = lower value
Outline: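 Patient-derived tumour cells were co-cultured with HUVEC and mesenchymal stem cells as multicellular spheroids at 37 °C. They were treated with POLQ inhibitors (novobiocin, ART-558, RP6685) alone or combined with other agents. Top concentrations were at or near clinical Cmax (otherwise 10 microM; SN-38 at 1 microM), decreasing in half-log steps.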

[1] = second compound 0.0316 µM, first compound 0.0316 µM
[2] = second compound 0.0316 µM, first compound 0.1 µM
[3] = second compound 0.0316 µM, first compound 0.316 µM
[4] = second compound 0.0316 µM, first compound 1 µM
[5] = second compound 0.0316 µM, first compound 3.16 µM
[6] = second compound 0.0316 µM, first compound 10 µM
[7] = second compound 0.1 µM, first compound 0.0316 µM
[8] = second compound 0.1 µM, first compound 0.1 µM
[9] = second compound 0.1 µM, first compound 0.316 µM
[10] = second compound 0.1 µM, first compound 1 µM
[11] = second compound 0.1 µM, first compound 3.16 µM
[12] = second compound 0.1 µM, first compound 10 µM
[13] = second compound 0.316 µM, first compound 0.0316 µM
[14] = second compound 0.316 µM, first compound 0.1 µM
[15] = second compound 0.316 µM, first compound 0.316 µM
[16] = second compound 0.316 µM, first compound 1 µM
[17] = second compound 0.316 µM, first compound 3.16 µM
[18] = second compound 0.316 µM, first compound 10 µM
[19] = second compound 1 µM, first compound 0.0316 µM
[20] = second compound 1 µM, first compound 0.1 µM
[21] = second compound 1 µM, first compound 0.316 µM
[22] = second compound 1 µM, first compound 1 µM
[23] = second compound 1 µM, first compound 3.16 µM
[24] = second compound 1 µM, first compound 10 µM
[25] = second compound 3.16 µM, first compound 0.0316 µM
[26] = second compound 3.16 µM, first compound 0.1 µM
[27] = second compound 3.16 µM, first compound 0.316 µM
[28] = second compound 3.16 µM, first compound 1 µM
[29] = second compound 3.16 µM, first compound 3.16 µM
[30] = second compound 3.16 µM, first compound 10 µM
[31] = second compound 10 µM, first compound 0.0316 µM
[32] = second compound 10 µM, first compound 0.1 µM
[33] = second compound 10 µM, first compound 0.316 µM
[34] = second compound 10 µM, first compound 1 µM
[35] = second compound 10 µM, first compound 3.16 µM
[36] = second compound 10 µM, first compound 10 µM
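Also: spheroids exposed to compounds for seven days.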
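For viability, T/C in this document: 100% = DMSO vehicle control viability.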

`CC(C)n1c(=O)n(C)c2cnc3cc(F)c(-c4ccc(OCCCN5CCCCC5)nc4)cc3c21` + Nc1ccc(C#CCN(C(=O)Cc2ncc(C(F)(F)F)cc2C(F)(F)F)c2ccc(F)cc2)nn1 showed an IC50 (second compound 0.0316 µM) of over 10000 nM, an IC50 (second compound 0.1 µM) of over 10000 nM and an IC50 (second compound 0.316 µM) of over 10000 nM. The IC50 (second compound 1 µM) was over 10000 nM, the IC50 (second compound 3.16 µM) was over 10000 nM and the IC50 (second compound 10 µM) was over 10000 nM. The viability, T/C [1] was 101%, the viability, T/C [2] was 105% and the viability, T/C [3] was 107%. For the same compound, the viability, T/C [4] was 103%, the viability, T/C [5] was 110% and the viability, T/C [6] was 92.7%. The viability, T/C [7] was 117%, the viability, T/C [8] was 113% and the viability, T/C [9] was 108%. It also gave a viability, T/C [10] of 108%, a viability, T/C [11] of 97.2% and a viability, T/C [12] of 101%. The viability, T/C [13] was 111%, the viability, T/C [14] was 91.5% and the viability, T/C [15] was 109%. For the same compound, the viability, T/C [16] was 104%, the viability, T/C [17] was 106% and the viability, T/C [18] was 94.5%. It also gave a viability, T/C [19] of 116%, a viability, T/C [20] of 105% and a viability, T/C [21] of 103%. The viability, T/C [22] was 112%, the viability, T/C [23] was 118% and the viability, T/C [24] was 102%. It also gave a viability, T/C [25] of 105%, a viability, T/C [26] of 106% and a viability, T/C [27] of 103%. For the same compound, the viability, T/C [28] was 115%, the viability, T/C [29] was 108% and the viability, T/C [30] was 111%. For the same compound, the viability, T/C [31] was 121%, the viability, T/C [32] was 119% and the viability, T/C [33] was 114%. For the same compound, the viability, T/C [34] was 128%, the viability, T/C [35] was 127% and the viability, T/C [36] was 122%.
In the case of `CC1COCCN1c1cc(-c2ccnn2C)c2ccnc(-c3ccn[nH]3)c2n1` (stereo unspecified) + Cc1cccc(N(C)C(=O)C2C(O)CCN2c2nc(C)cc(C(F)(F)F)c2C#N)c1, the IC50 (second compound 0.0316 µM) is reported as 381 nM, the IC50 (second compound 0.1 µM) is reported as 551 nM and the IC50 (second compound 0.316 µM) is reported as 289 nM. For the same compound, the IC50 (second compound 1 µM) was 362 nM, the IC50 (second compound 3.16 µM) was 479 nM and the IC50 (second compound 10 µM) was 634 nM. It also gave a viability, T/C [1] of 91.3%, a viability, T/C [2] of 86.4% and a viability, T/C [3] of 52.6%. It also gave a viability, T/C [4] of 32.6%, a viability, T/C [5] of 26.3% and a viability, T/C [6] of 24.5%. For the same compound, the viability, T/C [7] was 81.3%, the viability, T/C [8] was 80.9% and the viability, T/C [9] was 60.6%. For the same compound, the viability, T/C [10] was 37.4%, the viability, T/C [11] was 29.4% and the viability, T/C [12] was 23%. For the same compound, the viability, T/C [13] was 97%, the viability, T/C [14] was 90.2% and the viability, T/C [15] was 44.6%. It also gave a viability, T/C [16] of 38.4%, a viability, T/C [17] of 24.9% and a viability, T/C [18] of 21.9%. For the same compound, the viability, T/C [19] was 93.5%, the viability, T/C [20] was 68.5% and the viability, T/C [21] was 54.8%. The viability, T/C [22] was 36.2%, the viability, T/C [23] was 27.2% and the viability, T/C [24] was 22.7%. It also gave a viability, T/C [25] of 83.9%, a viability, T/C [26] of 70.4% and a viability, T/C [27] of 61.5%. For the same compound, the viability, T/C [28] was 33.1%, the viability, T/C [29] was 29.2% and the viability, T/C [30] was 22.5%. It also gave a viability, T/C [31] of 78.8%, a viability, T/C [32] of 71% and a viability, T/C [33] of 71.6%. For the same compound, the viability, T/C [34] was 35.8%, the viability, T/C [35] was 32.2% and the viability, T/C [36] was 20.8%.
`C=CCn1c(=O)c2cnc(Nc3ccc(N4CCN(C)CC4)cc3)nc2n1-c1cccc(C(C)(C)O)n1` + Nc1ccc(C#CCN(C(=O)Cc2ncc(C(F)(F)F)cc2C(F)(F)F)c2ccc(F)cc2)nn1 gave an IC50 (second compound 0.0316 µM) of over 1000 nM, an IC50 (second compound 0.1 µM) of over 1000 nM and an IC50 (second compound 0.316 µM) of over 1000 nM. For the same compound, the IC50 (second compound 1 µM) was over 1000 nM, the IC50 (second compound 3.16 µM) was over 1000 nM and the IC50 (second compound 10 µM) was over 1000 nM. For the same compound, the viability, T/C (second compound 0.0316 µM, first compound 0.00316 µM) was 122%, the viability, T/C (second compound 0.0316 µM, first compound 0.01 µM) was 102% and the viability, T/C [1] was 99.1%. The viability, T/C [2] was 98.3%, the viability, T/C [3] was 81.8% and the viability, T/C [4] was 69%. It also gave a viability, T/C (second compound 0.1 µM, first compound 0.00316 µM) of 96.3%, a viability, T/C (second compound 0.1 µM, first compound 0.01 µM) of 110% and a viability, T/C [7] of 89.4%. It also gave a viability, T/C [8] of 107%, a viability, T/C [9] of 90.7% and a viability, T/C [10] of 70.1%. The viability, T/C (second compound 0.316 µM, first compound 0.00316 µM) was 102%, the viability, T/C (second compound 0.316 µM, first compound 0.01 µM) was 96.9% and the viability, T/C [13] was 99.2%. It also gave a viability, T/C [14] of 86.1%, a viability, T/C [15] of 91.8% and a viability, T/C [16] of 61.4%. The viability, T/C (second compound 1 µM, first compound 0.00316 µM) was 106%, the viability, T/C (second compound 1 µM, first compound 0.01 µM) was 91.8% and the viability, T/C [19] was 79.9%. The viability, T/C [20] was 86.2%, the viability, T/C [21] was 93.8% and the viability, T/C [22] was 67.6%. For the same compound, the viability, T/C (second compound 3.16 µM, first compound 0.00316 µM) was 117%, the viability, T/C (second compound 3.16 µM, first compound 0.01 µM) was 110% and the viability, T/C [25] was 93.8%. The viability, T/C [26] was 102%, the viability, T/C [27] was 85.3% and the viability, T/C [28] was 84.6%. It also gave a viability, T/C (second compound 10 µM, first compound 0.00316 µM) of 117%, a viability, T/C (second compound 10 µM, first compound 0.01 µM) of 100% and a viability, T/C [31] of 96.7%. The viability, T/C [32] was 94.7%, the viability, T/C [33] was 100% and the viability, T/C [34] was 78.2%.
